Patent US12435080B2, “sGC stimulators” (Tisento Therapeutics Inc., priority 2016, dated 2025)
Where two headings read alike, the source gives them in different places.

Biological target: T1, sGC enzyme (Homo sapiens, UniProt Q02108+Q02153)
T1 construct: incorporated into these cells detect cGMP formed by the compounds stimulating the sGC enzyme; host or cells: HEK293 cells stably expressing GloSensor 40F cGMP biosensor
T1 sequence (Q02153 1-619): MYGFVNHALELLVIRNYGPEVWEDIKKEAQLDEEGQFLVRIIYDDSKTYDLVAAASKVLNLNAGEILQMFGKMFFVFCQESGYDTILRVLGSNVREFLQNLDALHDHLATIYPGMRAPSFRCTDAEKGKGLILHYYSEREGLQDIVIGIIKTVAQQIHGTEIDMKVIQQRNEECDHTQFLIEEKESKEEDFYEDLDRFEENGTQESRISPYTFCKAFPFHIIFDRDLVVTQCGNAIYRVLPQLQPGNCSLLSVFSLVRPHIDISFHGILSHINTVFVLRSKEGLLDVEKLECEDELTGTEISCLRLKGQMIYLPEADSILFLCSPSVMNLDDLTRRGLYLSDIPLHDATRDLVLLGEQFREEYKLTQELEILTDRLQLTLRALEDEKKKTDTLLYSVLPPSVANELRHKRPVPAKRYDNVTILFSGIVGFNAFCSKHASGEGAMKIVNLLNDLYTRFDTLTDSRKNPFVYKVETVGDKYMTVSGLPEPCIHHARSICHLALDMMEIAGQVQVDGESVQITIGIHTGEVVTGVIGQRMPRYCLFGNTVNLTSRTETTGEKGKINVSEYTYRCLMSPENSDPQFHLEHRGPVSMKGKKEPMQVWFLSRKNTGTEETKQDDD
T1 sequence (Q02108 1-690): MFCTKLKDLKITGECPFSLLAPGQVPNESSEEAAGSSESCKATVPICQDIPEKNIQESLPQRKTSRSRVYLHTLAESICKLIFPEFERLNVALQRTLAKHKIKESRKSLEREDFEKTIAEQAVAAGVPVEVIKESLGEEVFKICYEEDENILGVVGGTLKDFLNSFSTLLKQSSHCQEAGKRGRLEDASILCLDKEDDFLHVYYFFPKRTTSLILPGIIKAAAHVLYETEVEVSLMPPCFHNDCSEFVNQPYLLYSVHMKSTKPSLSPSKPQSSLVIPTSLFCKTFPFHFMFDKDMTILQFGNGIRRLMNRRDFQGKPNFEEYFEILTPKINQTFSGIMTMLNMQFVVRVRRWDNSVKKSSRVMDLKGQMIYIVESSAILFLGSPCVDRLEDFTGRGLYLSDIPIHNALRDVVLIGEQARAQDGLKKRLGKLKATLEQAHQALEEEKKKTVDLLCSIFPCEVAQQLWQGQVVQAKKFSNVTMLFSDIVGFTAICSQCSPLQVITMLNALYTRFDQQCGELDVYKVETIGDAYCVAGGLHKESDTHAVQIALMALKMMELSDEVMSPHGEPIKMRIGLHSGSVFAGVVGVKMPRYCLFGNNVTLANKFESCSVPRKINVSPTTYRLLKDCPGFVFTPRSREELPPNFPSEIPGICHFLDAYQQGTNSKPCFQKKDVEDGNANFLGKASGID
Experiment: cGMP GloSensor cell-based assay, 384-well format
Settings: HEK293 cells expressing GloSensor 40F cGMP, 10 μM DETA-NONOate, normalized to 30 μM Compound Y
Text: Human embryonic kidney cells (HEK293) cells expressing GloSensor™ 40F cGMP (Part No: CS182801, Promega) were used to evaluate the activity of test compounds. The luminescent biosensors (engineered luciferase) that were incorporated into these cells detect cGMP formed by the compounds stimulating the sGC enzyme and emit luminescence.
cGMP GloSensor cells were maintained in Dulbecco's Modification of Eagle's Medium (DMEM) supplemented with fetal bovine serum (FBS, 10% final) and hygromycine (200 ug/ml). […] Cells were incubated overnight at 37° C. in a humidified chamber with 5% CO2. The next day, medium was removed and cells were replaced with 40 ul/well of GloSensor™, 2 mM (Promega Cat No E1291). Cells were treated for 90 minutes at 25° C. to allow the substrate to equilibrate in the cells. […] For endpoint SAR screening, data were collected after 55 min incubation at room temperature.
Data were fit using a 4-parameter fit (log(agonist) vs. response—variable slope) using GraphPad Prism Software v.5. n=2 for all compounds. […] Compounds failing to elicit a minimum response of 50% are reported as >30 μM or ND.

[1] = compounds in Table IA, read-out: Glo-sensor AbsEC50
[2] = compounds in Table IB, read-out: Glo-sensor Abs EC50

Row | Compound | EC50 [1] | EC50 [2]
1 | FCc1n[nH]c(-c2nn(Cc3ccccc3F)c3ncccc23)n1 [Compound I-58, 1-(2-Fluorobenzyl)-3-(3-(fluoromethyl)-1H-1,2,4-triazol-5-yl)-1H-pyrazolo[3,4-b]pyridine] | < 100 nM | –
2 | FCCN1CC(c2n[nH]c(-c3nn(Cc4ccccc4F)c4ncccc34)n2)C1 [Compound I-97, 1-(2-Fluorobenzyl)-3-(3-(1-(2-fluoroethyl)azetidin-3-yl)-1H-1,2,4-triazol-5-yl)-1H-pyrazolo[3,4-b]pyridine] | 100 to 1000 nM | –
3 | O=C(N1CC(c2n[nH]c(-c3nn(Cc4ccccc4F)c4ncccc34)n2)C1)C(F)(F)F [Compound I-75] | 100 to 1000 nM | –
4 | Fc1ccccc1Cn1nc(-c2nc(C3CCOCC3)n[nH]2)c2cccnc21 [Compound I-78, 1-(2-Fluorobenzyl)-3-(3-(tetrahydro-2H-pyran-4-yl)-1H-1,2,4-triazol-5-yl)-1H-pyrazolo[3,4-b]pyridine] | > 1000 nM | –
5 | Cc1ncc(Cc2nc(-c3nc(C(F)(F)F)n[nH]3)n3ccc(Cl)cc23)cn1 [Compound I-29, 7-Chloro-1-((2-methylpyrimidin-5-yl)methyl)-3-(3-(trifluoromethyl)-1H-1,2,4-triazol-5-yl)imidazo[1,5-a]pyridine] | – | 100 to 1000 nM
6 | Nc1n[nH]c(-c2nn(Cc3ccccc3F)c3ncccc23)n1 [Compound I-84, 5-(1-(2-fluorobenzyl)-1H-pyrazolo[3,4-b]pyridin-3-yl)-1H-1,2,4-triazol-3-amine] | 100 to 1000 nM | –
7 | Cc1ccc2c(-c3nc(C(F)(F)F)n[nH]3)nn(Cc3cccc(F)c3F)c2n1 [Compound I-85, 1-(2,3-Difluorobenzyl)-6-methyl-3-(3-(trifluoromethyl)-1H-1,2,4-triazol-5-yl)-1H-pyrazolo[3,4-b]pyridine] | < 100 nM | –
8 | Fc1cccc(Cn2nc(-c3nc(C(F)(F)F)n[nH]3)c3cccnc32)c1 [Compound I-52, 1-(3-Fluorobenzyl)-3-(3-(trifluoromethyl)-1H-1,2,4-triazol-5-yl)-1H-pyrazolo[3,4-b]pyridine] | < 100 nM | –
9 | Fc1ccccc1Cn1nc(-c2nc(OCC(F)(F)F)n[nH]2)c2cccnc21 [Compound I-83, 1-(2-Fluorobenzyl)-3-(3-(2,2,2-trifluoroethoxy)-1H-1,2,4-triazol-5-yl)-1H-pyrazolo[3,4-b]pyridine] | > 1000 nM | –
10 | Fc1ccc(F)c(Cn2nc(-c3nc(C(F)(F)F)n[nH]3)c3cccnc32)c1 [Compound I-14, 1-(2,5-Difluorobenzyl)-3-(3-(trifluoromethyl)-1H-1,2,4-triazol-5-yl)-1H-pyrazolo[3,4-b]pyridine] | < 100 nM | –
11 | Cc1ncc(Cn2nc(-c3nc(C(F)(F)F)n[nH]3)c3ccc(Cl)cc32)cn1 [Compound I-22, 6-Chloro-1-((2-methylpyrimidin-5-yl)methyl)-3-(3-(trifluoromethyl)-1H-1,2,4-triazol-5-yl)-1H-indazole] | < 100 nM | –
12 | COCc1n[nH]c(-c2nn(Cc3ccccc3F)c3ncccc23)n1 [Compound I-112, 1-(2-Fluorobenzyl)-3-(3-(methoxymethyl)-1H-1,2,4-triazol-5-yl)-1H-pyrazolo[3,4-b]pyridine] | 100 to 1000 nM | –
13 | CC(C)(C)c1n[nH]c(-c2nn(Cc3ccccc3F)c3ncccc23)n1 [Compound I-37, 3-(3-(tert-Butyl)-1H-1,2,4-triazol-5-yl)-1-(2-fluorobenzyl)-1H-pyrazolo[3,4-b]pyridine] | < 100 nM | –
14 | Fc1ccccc1Cn1nc(-c2nc(C(F)(F)F)n[nH]2)c2ncccc21 [Compound I-35, 1-(2-Fluorobenzyl)-3-(3-(trifluoromethyl)-1H-1,2,4-triazol-5-yl)-1H-pyrazolo[4,3-b]pyridine] | > 1000 nM | –
15 | NC(=O)c1n[nH]c(-c2nn(Cc3ccccc3F)c3ncccc23)n1 [Compound I-40, 5-(1-(2-fluorobenzyl)-1H-pyrazolo[3,4-b]pyridin-3-yl)-1H-1,2,4-triazole-3-carboxamide] | 100 to 1000 nM | –
16 | FC(F)c1n[nH]c(-n2nc(Cc3ccccc3)c3ncccc32)n1 [Compound I-129] | > 1000 nM | –
17 | Fc1cc(F)cc(Cn2nc(-c3nc(C(F)(F)F)n[nH]3)c3cccnc32)c1 [Compound I-51, 1-(3,5-Difluorobenzyl)-3-(3-(trifluoromethyl)-1H-1,2,4-triazol-5-yl)-1H-pyrazolo[3,4-b]pyridine] | < 100 nM | –
18 | Fc1cccc(Cc2nn(-c3nc(C(F)F)n[nH]3)c3cccnc23)c1 [Compound I-122, 1-(3-(Difluoromethyl)-1H-1,2,4-triazol-5-yl)-3-(3-fluorobenzyl)-1H-pyrazolo[4,3-b]pyridine] | 100 to 1000 nM | –
19 | FC(F)(F)c1n[nH]c(-c2nn(Cc3cncnc3)c3cc(Cl)ccc23)n1 [Compound I-16, 6-Chloro-1-(pyrimidin-5-ylmethyl)-3-(3-(trifluoromethyl)-1H-1,2,4-triazol-5-yl)-1H-indazole] | < 100 nM | –
20 | NC1(c2n[nH]c(-c3nn(Cc4ccccc4F)c4ncccc34)n2)COC1 [Compound I-79, 3-(5-(1-(2-fluorobenzyl)-1H-pyrazolo[3,4-b]pyridin-3-yl)-1H-1,2,4-triazol-3-yl)oxetan-3-amine] | > 1000 nM | –
21 | Fc1cccc(Cn2nc(-c3nc(C(F)F)n[nH]3)c3cccnc32)c1F [Compound I-67, 1-(2,3-Difluorobenzyl)-3-(3-(difluoromethyl)-1H-1,2,4-triazol-5-yl)-1H-pyrazolo[3,4-b]pyridine] | < 100 nM | –
22 | CC(=O)NCc1n[nH]c(-c2nn(Cc3ccccc3F)c3ncccc23)n1 [Compound I-124, N-((5-(1-(2-fluorobenzyl)-1H-pyrazolo[3,4-b]pyridin-3-yl)-1H-1,2,4-triazol-3-yl)methyl)acetamide] | 100 to 1000 nM | –
23 | Fc1ccccc1Cn1nc(-c2nc(Cn3ccnc3)n[nH]2)c2cccnc21 [Compound I-99, 3-(3-((1H-imidazol-1-yl)methyl)-1H-1,2,4-triazol-5-yl)-1-(2-fluorobenzyl)-1H-pyrazolo[3,4-b]pyridine] | 100 to 1000 nM | –
24 | CCC(=O)c1n[nH]c(-c2nn(Cc3ccccc3F)c3ncccc23)n1 [Compound I-66] | > 1000 nM | –
25 | Fc1cccc(F)c1Cn1nc(-c2nc(C(F)(F)F)n[nH]2)c2cccnc21 [Compound I-42] | < 100 nM | –
26 | Fc1ccccc1Cn1nc(-c2nc(C(F)(F)F)n[nH]2)c2ccncc21 [Compound I-32] | 100 to 1000 nM | –
27 | CC(F)(F)c1n[nH]c(-c2nn(Cc3ccccc3F)c3ncccc23)n1 [Compound I-36, 3-(3-(1,1-difluoroethyl)-1H-1,2,4-triazol-5-yl)-1-(2-fluorobenzyl)-1H-pyrazolo[3,4-b]pyridine] | < 100 nM | –
28 | Fc1ccccc1Cn1nc(-c2nc(N3CCOCC3)n[nH]2)c2cccnc21 [Compound I-57] | 100 to 1000 nM | –
29 | Cc1ncc(Cn2nc(-c3nc(C(F)(F)F)n[nH]3)c3ncccc32)cn1 [Compound I-38] | > 1000 nM | –
30 | FC(F)(F)c1n[nH]c(-c2nc(CCC(F)(F)C(F)(F)F)n3ncccc23)n1 [Compound I-18, 7-(3,3,4,4,4-pentafluorobutyl)-5-(3-(trifluoromethyl)-1H-1,2,4-triazol-5-yl)imidazo[1,5-b]pyridazine] | – | 100 to 1000 nM
